These results are taken from patent publication US20260176320A1, “MODULATORS OF G-PROTEIN COUPLED RECEPTORS” (priority 2018, published 2026).

Read-outs that look alike come from different tables or passages of the source.

What all share (assay type): cell-based
The target in one assay is T1, GIP-R (Homo sapiens, UniProt P48546).
T1 sequence (P48546 22-466): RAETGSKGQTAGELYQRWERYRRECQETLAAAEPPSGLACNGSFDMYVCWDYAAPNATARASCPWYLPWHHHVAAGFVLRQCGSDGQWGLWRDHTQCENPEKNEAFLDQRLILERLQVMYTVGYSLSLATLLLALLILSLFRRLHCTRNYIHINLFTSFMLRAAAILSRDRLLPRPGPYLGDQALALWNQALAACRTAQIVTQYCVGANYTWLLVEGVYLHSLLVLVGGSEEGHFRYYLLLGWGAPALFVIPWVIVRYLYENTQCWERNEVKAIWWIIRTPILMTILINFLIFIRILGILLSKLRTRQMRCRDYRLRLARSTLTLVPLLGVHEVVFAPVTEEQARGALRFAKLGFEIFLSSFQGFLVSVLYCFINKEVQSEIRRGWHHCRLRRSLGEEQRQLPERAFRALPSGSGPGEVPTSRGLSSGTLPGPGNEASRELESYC
In words: HitHunter cAMP assay (GIP-R). The conditions noted are these: cAMP; for Emax: read-out: (Emax) GIP-R. The procedure, abridged:
(§1)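 Luminescent readout of cAMP by enzyme-fragment immunocompetition gave agonist concentration-response data. Cells (10,000/well) sat in HBSS buffer containing IBMX 625 μM, HEPES 10 mM and BSA 0.2%, exposed to agonist for 30 min at room temperature.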

The target in assay [1] is T2, GLP-1R (Homo sapiens, UniProt P43220). Nature of the assay: PathHunter β-arrestin assay. The procedure, abridged:
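Overnight-plated cells; 0.2% BSA medium; agonist 22-pt 2× dilution series, duplicate; 90 min, 37 °C/5% CO2; detection reagent 3 h RT, dark; luminescence.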

The target of assay [2] is T2, GLP-1R. Nature of the assay: HitHunter cAMP assay (GLP-1R). The conditions noted are these: cAMP; for Emax: read-out: (Emax) GLP-1R. The procedure, abridged:
as §1
(In general: cAMP levels reflect the balance of adenylyl cyclase and phosphodiesterase activity.)

As usually defined, the Emax is the greatest response seen or fitted, relative to the assay's reference.

T2 sequence (P43220 24-463): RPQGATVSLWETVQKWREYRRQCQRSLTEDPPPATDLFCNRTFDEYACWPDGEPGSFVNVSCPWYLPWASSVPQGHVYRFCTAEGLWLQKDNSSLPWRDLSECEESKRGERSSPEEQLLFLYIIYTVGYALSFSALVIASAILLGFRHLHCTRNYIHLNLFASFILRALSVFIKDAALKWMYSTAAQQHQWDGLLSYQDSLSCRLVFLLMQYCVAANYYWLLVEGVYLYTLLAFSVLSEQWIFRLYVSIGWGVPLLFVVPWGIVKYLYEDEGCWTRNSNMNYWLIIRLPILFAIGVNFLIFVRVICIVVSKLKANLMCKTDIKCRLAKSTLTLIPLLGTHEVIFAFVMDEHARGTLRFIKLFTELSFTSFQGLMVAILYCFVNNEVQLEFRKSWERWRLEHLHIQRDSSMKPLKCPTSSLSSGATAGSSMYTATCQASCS

In the case of `CCCCCCCCCCCCCCCC(=O)N[C@@H](CCC(=O)NCCCC[C@H](NC(=O)[C@H](CO)NC(=O)[C@@H]1CCCN1C(=O)[C@@H]1CCCN1C(=O)[C@@H]1CCCN1C(=O)[C@H](C)NC(=O)CNC(=O)[C@H](CO)NC(=O)[C@H](CO)NC(=O)[C@@H]1CCCN1C(=O)CNC(=O)CNC(=O)[C@H](C)NC(=O)[C@H](CC(C)C)NC(=O)[C@H](CC(C)C)NC(=O)[C@H](Cc1c[nH]c2ccccc12)NC(=O)[C@H](CC(N)=O)NC(=O)[C@@H](NC(=O)[C@H](Cc1ccccc1)NC(=O)[C@H](CCC(=O)O)NC(=O)C(C)(C)NC(=O)[C@H](C)NC(=O)[C@H](C)NC(=O)[C@H](CCC(N)=O)NC(=O)[C@H](CCCCN)NC(=O)[C@H](CC(=O)O)NC(=O)[C@H](CC(C)C)NC(=O)[C@H](Cc1ccc(O)cc1)NC(=O)[C@@H](NC(=O)[C@H](CO)NC(=O)[C@H](Cc1ccc(O)cc1)NC(=O)[C@H](CC(=O)O)NC(=O)[C@H](CO)NC(=O)[C@@H](NC(=O)[C@H](Cc1ccccc1)NC(=O)[C@@H](NC(=O)CNC(=O)[C@H](CCC(=O)O)NC(=O)CSCC(=O)NCCN1C(=O)c2ccccc2C1=O)[C@@H](C)O)[C@@H](C)O)[C@@H](C)CC)C(C)C)C(N)=O)C(=O)O` [Compound 173], the EC50 is 0.1 to 1 nM on GIP-R (EC50 GIP-R/nM, Table 3); 0.1 to 1 nM at GIP-R (EC50 GIP-R/nM, Table 3A); above 1000 nM on GLP-1R [1]; 1 to 10 nM on GLP-1R [2] (EC50 GLP-1R/nM, Table 3); 1 to 10 nM at GLP-1R [2] (EC50 GLP-1R/nM, Table 3A). Moreover, the maximum response (Emax) at GIP-R (Table 3) was 92 to 111%; on GIP-R (Table 3A) it was 92 to 111%; on GLP-1R [2] (Table 3) it was 90 to 105%; on GLP-1R [2] (Table 3A), 90 to 105%.

On to `CC[C@H](C)[C@H](NC(=O)[C@H](CO)NC(=O)[C@H](Cc1ccc(O)cc1)NC(=O)[C@H](CC(=O)O)NC(=O)[C@H](CO)NC(=O)[C@@H](NC(=O)[C@H](Cc1ccccc1)NC(=O)[C@@H](NC(=O)CNC(=O)[C@H](CCC(=O)O)NC(=O)CCCC(=O)NCCN1C(=O)c2ccccc2C1=O)[C@@H](C)O)[C@@H](C)O)C(=O)N[C@@H](Cc1ccc(O)cc1)C(=O)N[C@@H](CC(C)C)C(=O)N[C@@H](CC(=O)O)C(=O)N[C@@H](CCCCN)C(=O)N[C@@H](CCC(N)=O)C(=O)N[C@@H](C)C(=O)N[C@@H](C)C(=O)NC(C)(C)C(=O)N[C@@H](CCC(=O)O)C(=O)N[C@@H](Cc1ccccc1)C(=O)N[C@H](C(=O)N[C@@H](CC(N)=O)C(=O)N[C@@H](Cc1c[nH]c2ccccc12)C(=O)N[C@@H](CC(C)C)C(=O)N[C@@H](CC(C)C)C(=O)N[C@@H](C)C(=O)NCC(=O)NCC(=O)N1CCC[C@H]1C(=O)N[C@@H](CO)C(=O)N[C@@H](CO)C(=O)NCC(=O)N[C@@H](C)C(=O)N1CCC[C@H]1C(=O)N1CCC[C@H]1C(=O)N1CCC[C@H]1C(=O)N[C@@H](CO)C(=O)N[C@@H](CCCCN)C(N)=O)C(C)C` [Compound 188], for which the EC50 is 1 to 10 nM on GIP-R (EC50 GIP-R/nM, Table 3); 1 to 10 nM at GIP-R (EC50 GIP-R/nM, Table 3A); above 1000 nM on GLP-1R [1]; 10 to 100 nM on GLP-1R [2] (EC50 GLP-1R/nM, Table 3); 10 to 100 nM on GLP-1R [2] (EC50 GLP-1R/nM, Table 3A). The Emax at GIP-R (Table 3) is 107%; on GIP-R (Table 3A) it was 107%; at GLP-1R [2] (Table 3), 101%; on GLP-1R [2] (Table 3A), 101%.

Consider `CCCCCCCCCCCCCCCC(=O)N[C@@H](CCC(=O)NCCCC[C@H](NC(=O)[C@H](CO)NC(=O)[C@@H]1CCCN1C(=O)[C@@H]1CCCN1C(=O)[C@@H]1CCCN1C(=O)[C@H](C)NC(=O)CNC(=O)[C@H](CO)NC(=O)[C@H](CO)NC(=O)[C@@H]1CCCN1C(=O)CNC(=O)CNC(=O)[C@H](C)NC(=O)[C@H](CC(C)C)NC(=O)[C@H](CC(C)C)NC(=O)[C@H](Cc1c[nH]c2ccccc12)NC(=O)[C@H](CC(N)=O)NC(=O)[C@@H](NC(=O)[C@H](Cc1ccccc1)NC(=O)[C@H](CCC(=O)O)NC(=O)C(C)(C)NC(=O)[C@H](C)NC(=O)[C@H](C)NC(=O)[C@H](CCC(N)=O)NC(=O)[C@H](CCCCN)NC(=O)[C@H](CC(=O)O)NC(=O)[C@H](CC(C)C)NC(=O)[C@H](Cc1ccc(O)cc1)NC(=O)[C@@H](NC(=O)[C@H](CO)NC(=O)[C@H](Cc1ccc(O)cc1)NC(=O)[C@H](CC(=O)O)NC(=O)[C@H](CO)NC(=O)[C@@H](NC(=O)[C@H](Cc1ccccc1)NC(=O)[C@@H](NC(=O)CNC(=O)[C@H](CCC(=O)O)NC(=O)CSCC(=O)NCCN1C(=O)CC[C@@H]1CO)[C@@H](C)O)[C@@H](C)O)[C@@H](C)CC)C(C)C)C(N)=O)C(=O)O` [Compound 43], for which the EC50 is 1 to 10 nM at GIP-R (EC50 GIP-R/nM, Table 3); 1 to 10 nM on GIP-R (EC50 GIP-R/nM, Table 3A); above 1000 nM at GLP-1R [1]; 0.1 to 1 nM on GLP-1R [2] (EC50 GLP-1R/nM, Table 3); 0.1 to 1 nM on GLP-1R [2] (EC50 GLP-1R/nM, Table 3A). The Emax fell in the range of 60 to 73% at GIP-R (Table 3), 60 to 73% at GIP-R (Table 3A), 93 to 97% at GLP-1R [2] (Table 3) and 93 to 97% on GLP-1R [2] (Table 3A).

As for `CC[C@H](C)[C@H](NC(=O)[C@H](CO)NC(=O)[C@H](Cc1ccc(O)cc1)NC(=O)[C@H](CC(=O)O)NC(=O)[C@H](CO)NC(=O)[C@@H](NC(=O)[C@H](Cc1ccccc1)NC(=O)[C@@H](NC(=O)CNC(=O)[C@H](CCC(=O)O)NC(=O)C(C)(C)C(=O)NCCCN1C(=O)c2ccc(C)cc2C1=O)[C@@H](C)O)[C@@H](C)O)C(=O)N[C@@H](Cc1ccc(O)cc1)C(=O)N[C@@H](CC(C)C)C(=O)N[C@@H](CC(=O)O)C(=O)N[C@@H](CCCCN)C(=O)N[C@@H](CCC(N)=O)C(=O)N[C@@H](C)C(=O)N[C@@H](C)C(=O)NC(C)(C)C(=O)N[C@@H](CCC(=O)O)C(=O)N[C@@H](Cc1ccccc1)C(=O)N[C@H](C(=O)N[C@@H](CC(N)=O)C(=O)N[C@@H](Cc1c[nH]c2ccccc12)C(=O)N[C@@H](CC(C)C)C(=O)N[C@@H](CC(C)C)C(=O)N[C@@H](C)C(=O)NCC(=O)NCC(=O)N1CCC[C@H]1C(=O)N[C@@H](CO)C(=O)N[C@@H](CO)C(=O)NCC(=O)N[C@@H](C)C(=O)N1CCC[C@H]1C(=O)N1CCC[C@H]1C(=O)N1CCC[C@H]1C(=O)N[C@@H](CO)C(=O)N[C@@H](CCCCN)C(N)=O)C(C)C` [Compound 129], the maximal effect (Emax) on GIP-R (Table 3) fell in the range of 102 to 109%; at GIP-R (Table 3A), 102 to 109%; at GLP-1R [2] (Table 3), 91 to 95%; on GLP-1R [2] (Table 3A), 91 to 95%. For the same compound, the EC50 is 0.1 to 10 nM at GIP-R (read-out: EC50 GIP-R/nM, Table 3); 0.1 to 10 nM at GIP-R (read-out: EC50 GIP-R/nM, Table 3A); above 1000 nM at GLP-1R [1]; 1 to 100 nM on GLP-1R [2] (read-out: EC50 GLP-1R/nM, Table 3); 1 to 100 nM on GLP-1R [2] (read-out: EC50 GLP-1R/nM, Table 3A).

Turning to `CCCCCCCCCCCCCCCC(=O)N[C@@H](CCC(=O)NCCCC[C@H](NC(=O)[C@H](CO)NC(=O)[C@@H]1CCCN1C(=O)[C@@H]1CCCN1C(=O)[C@@H]1CCCN1C(=O)[C@H](C)NC(=O)CNC(=O)[C@H](CO)NC(=O)[C@H](CO)NC(=O)[C@@H]1CCCN1C(=O)CNC(=O)CNC(=O)[C@H](C)NC(=O)[C@H](CC(C)C)NC(=O)[C@H](CC(C)C)NC(=O)[C@H](Cc1c[nH]c2ccccc12)NC(=O)[C@H](CC(N)=O)NC(=O)[C@@H](NC(=O)[C@H](Cc1ccccc1)NC(=O)[C@H](CCC(=O)O)NC(=O)C(C)(C)NC(=O)[C@H](C)NC(=O)[C@H](C)NC(=O)[C@H](CCC(N)=O)NC(=O)[C@H](CCCCN)NC(=O)[C@H](CC(=O)O)NC(=O)[C@H](CC(C)C)NC(=O)[C@H](Cc1ccc(O)cc1)NC(=O)[C@@H](NC(=O)[C@H](CO)NC(=O)[C@H](Cc1ccc(O)cc1)NC(=O)[C@H](CC(=O)O)NC(=O)[C@H](CO)NC(=O)[C@@H](NC(=O)[C@H](Cc1ccccc1)NC(=O)[C@@H](NC(=O)CNC(=O)[C@H](CCC(=O)O)NC(=O)CSCC(=O)NCCN1CCNCC1=O)[C@@H](C)O)[C@@H](C)O)[C@@H](C)CC)C(C)C)C(N)=O)C(=O)O` [Compound 33], the Emax on GIP-R (Table 3) was determined as 43%; on GIP-R (Table 3A), 43%; on GLP-1R [2] (Table 3), 100%; at GLP-1R [2] (Table 3A) it was 100%. For the same compound, the EC50 on GIP-R (Table 3, read-out: EC50 GIP-R/nM) is 10 to 100 nM; on GIP-R (Table 3A, read-out: EC50 GIP-R/nM), 10 to 100 nM; at GLP-1R [1] (PathHunter β-arrestin assay, read-out: β-arrestin activity EC50), above 1000 nM; on GLP-1R [2] (Table 3, read-out: EC50 GLP-1R/nM), 0.1 to 1 nM; at GLP-1R [2] (Table 3A, read-out: EC50 GLP-1R/nM), 0.1 to 1 nM.
